Experimental data taken from EP3628659A1, “SELENOESTER-CONTAINING COMPOUNDS FOR USE IN THE TREATMENT OF MICROBIAL INFECTIONS OR COLORECTAL CANCER” (Consejo Superior De Investigaciones Científicas, priority 2018, dated 2020).

Tests used:
[1] = tested on: Colo 320/MDR-LRP multidrug resistant overexpressing ABCB1 (MDR1)-LRP; experiment: cells; type: cell-based, human; conditions: Homo sapiens, 24 h, read-out: Colo 320 Cytotoxicity
Procedure: (§1) Cytotoxicity assays in human colonic adenocarcinoma cell lines Colo 205 doxorubicin-sensitive (ATCC-CCL-222) and Colo 320/MDR-LRP multidrug resistant overexpressing ABCB1 (MDR1)-LRP (ATCC-CCL-220.1) were performed following the procedure described by Gajdács et al, 2017, Bioorg Med Chem Lett. 27(4): 797-802. The effects of increasing concentrations of selenium compounds on cell growth were tested in 96-well flat-bottomed microtiter plates. The selectivity of the action towards cancer cells was assessed through the evaluation of cytotoxic activity in a non-tumoral cell line, the MRC-5 human embryonal lung fibroblast cell lines (ATCC CCL-171), as described in Gajdács et al, 2017, Bioorg Med Chem Lett. 27(4): 797-802.
(§2) All cell lines were purchased from LGC Promochem, Teddington, UK. The colonic cells were cultured in RPMI 1640 medium supplemented with 10% heat-inactivated fetal bovine serum, 2 mM L-glutamine, 1 mM Na-pyruvate and 100 mM Hepes. The cell lines were incubated at 37°C, in a 5% CO2, 95% air atmosphere. The semi-adherent human colon cancer cells were detached with Trypsin-Versene (EDTA) solution for 5 min at 37°C. Alternatively, MRC-5 cells was cultured in Eagle's Minimal Essential Medium (EMEM, containing 4.5 g/L glucose) supplemented with a non-essential amino acid mixture, a selection of vitamins and 10% heat-inactivated fetal bovine serum. The cell lines were incubated at 37°C, in a 5% CO2, 95% air atmosphere.
(§3) The compounds were diluted in a volume of 100 µL of medium. The two-fold serial dilutions of selenocompounds were prepared in 100 µL of RPMI 1640, horizontally. The semi-adherent colonic adenocarcinoma cells were treated with Trypsin-Versene (EDTA) solution. They were adjusted to a density of 2×10^4 cells in 100 µL of RPMI 1640 medium, and were added to each well, with the exception of the medium control wells. The final volume of the wells containing selenocompounds and cells was 200 µL.
(§4) The culture plates were incubated at 37°C for 24 h; at the end of the incubation period, 20 µL of MTT (thiazolyl blue tetrazolium bromide, Sigma) solution (from a stock solution of 5 mg/mL) were added to each well. After incubation at 37°C for 4 h, 100 µL of sodium dodecyl sulfate (SDS) (Sigma) solution (10% in 0.01 M HCI) were added to each well and the plates were further incubated at 37°C overnight. Cell growth was determined by measuring the optical density (OD) at 540/630 nm with Multiscan EX ELISA reader (Thermo Labsystems, Cheshire, WA, USA). Inhibition of the cell growth was determined according to the formula below: […] = 100−[(OD sample−OD medium control)/(OD cell control−OD medium control)] × 100 [formula]
(§5) Results are expressed in terms of IC50, defined as the inhibitory dose that reduces the growth of the cells exposed to the tested compounds by 50%. Regarding the selectivity, the selectivity indexes (SI) were calculate, being SI the quotient of the IC50 in non-tumoral cells (MRC-5) and the respective cancer cell (Colo-205 or Colo-320). Compound is considered moderately selective when SI < 6 and ≥ 3; and strongly selective when SI ≥ 6.

[2] = tested on: Colo 205 doxorubicin-sensitive; experiment: Cytotoxicity assay (MTT) in Colo 205 cells; type: cell-based, human; conditions: Homo sapiens, COLO 205, 24 h, read-out: Colo 205 Cytotoxicity
Procedure: as §1, §2, §3, §4, §5

[3] = tested on: Candida albicans; experiment: Antifungal activity (optical density), Candida albicans; type: cell-based; conditions: IC50 class, tested at 50, 100, 150 and 200 µM, OD 570 nm, 37 °C
Procedure: (§6) The compounds were tested for their antifungal and nematicidal properties against the fungi Candida albicans and Saccharomyces cerevisiae, and against the nematode Steinernema feltiae.
(§7) Fungal cell densities were determined by measuring the optical density (OD) at 570 nm at 0 h (first measurement immediately after incubation), 4 h, and 24 h after incubation at 37 °C; and using a Universal Microplate Reader, EL800, Biotech Instruments, Inc. Highland Park, Winooski, VT, USA. Compounds were dissolved in 1% DMSO and were tested at final concentrations of 50, 100, 150, and 200 µM. Nutrient Sabouraud Dextrose (SD), and Yeast Peptone Dextrose (YPD) were used as media for C. albicans, and S. cerevisiae, respectively. Ketoconazole was used as the positive control for C. albicans and S. cerevisiae. The growth culture with medium for each organism was used as the negative control. The Solvent 1% DMSO stock was used as a solvent control. All experiments were carried out in triplicate and on three different occasions (n = 9).
(§8) For the three organisms considered (C. albicans, S. cerevisiae and S. feltiae), the inhibitory concentration 50% (IC50) is defined as the concentration that inhibits the viability of the respective organism to a 50% of the viability determined for the negative control.

[4] = tested on: Steinernema feltiae; experiment: Nematicidal activity (viability count), Steinernema feltiae; type: in vivo; conditions: IC50 class, tested at 50, 100, 150 and 200 µM, viability at 24 h
Procedure: as §6
The soil nematodes S. feltiae were purchased from Sautter and Stepper GmbH (Ammerbuch, Germany) and stored at 4 °C in the dark. Before each experiment, fresh samples of nematodes were purchased and stored in the fridge upon arrival and used for a maximum of six days. To perform the assay, 200 mg of nematodes was reconstituted in 50 mL of phosphate buffered saline (PBS) (pH = 7.4) to form a homogenous suspension to revive the nematodes. Afterwards, the individual suspensions were allowed to rest at room temperature. The sedimentation was avoided with occasional shaking in moderate light and at room temperature (25 °C) for 30 min. Viability of the nematodes was determined by counting the live and dead nematodes under a light microscope (TR 200, VWR International, Leuven, Belgium) at four-fold magnification. An initial viability value of more than 90 percent was considered necessary to perform the experiments.
Sample solutions were added into the wells of a 96-well plate to achieve at final concentrations of 50,100, 150, and 200 µM. Afterwards, 10 µL of nematode suspension was added to each well and the final volume in each well was adjusted to 100 µL with phosphate buffered saline (PBS) (pH = 7.4). PBS was used in the negative control and ethanol in the positive control. Viability was determined at 0 h and 24 h by counting the live and dead nematodes, whereby 50 µL of lukewarm water (40 °C) were added to each well to stimulate the nematodes for the 24 h reading. Each experiment was performed independently in triplicate and on three different occasions (n = 9).
as §8

[5] = tested on: Saccharomyces cerevisiae; experiment: Antifungal activity (optical density), Saccharomyces cerevisiae; type: cell-based; conditions: read-out: Antifungal activity Saccharomyces cerevisiae, IC50 class, tested at 50, 100, 150 and 200 µM, OD 570 nm, 37 °C, read-out: Antifungal activity Streptomyces cerevisiae
Procedure: as §6, §7, §8

Structure (SMILES) | IC50 [1] | IC50 [2] | IC50 [3] | IC50 [4] | IC50 [5]
N#CC[Se]C(=O)c1ccc(F)cc1 [Compound 1, Se-(cyanomethyl) 4-fluorobenzoselenoate] | 1 to 10 µM | 1 to 10 µM | 10 to 50 µM | 50 to 100 µM | > 100 µM
N#CC[Se]C(=O)c1ccc(Cl)cc1 [Compound 3, Se-(cyanomethyl) 4-chlorobenzoselenoate] | 1 to 10 µM | < 1 µM | 10 to 50 µM | 10 to 50 µM | > 100 µM
N#CCC[Se]C(=O)c1ccc(Cl)cc1 [Compound 4, Se-(cyanoethyl) 4-chlorobenzoselenoate] | 1 to 10 µM | 1 to 10 µM | > 100 µM | 10 to 50 µM | 50 to 100 µM
N#CCCC[Se]C(=O)c1ccc(Cl)cc1 [Compound 5, Se-(cyanopropyl) 4-chlorobenzoselenoate] | 1 to 10 µM | 1 to 10 µM | 10 to 50 µM | 1 to 10 µM | > 100 µM
N#CC[Se]C(=O)c1ccccc1 [Compound 6, Se-(cyanomethyl) benzoselenoate] | 1 to 10 µM | 1 to 10 µM | 10 to 50 µM | 10 to 50 µM | > 100 µM
Cc1ccc(C(=O)[Se]CC#N)cc1 [Compound 7, Se-(cyanomethyl) 4-methylbenzoselenoate] | 1 to 10 µM | 1 to 10 µM | 10 to 50 µM | 1 to 10 µM | > 100 µM
Cc1ccc(C(=O)[Se]CCC#N)cc1 [Compound 8, Se-(cyanoethyl) 4-methylbenzoselenoate] | 1 to 10 µM | 1 to 10 µM | > 100 µM | 10 to 50 µM | 50 to 100 µM
Cc1ccc(C(=O)[Se]CCCC#N)cc1 [Compound 9, Se-(cyanopropyl) 4-methylbenzoselenoate] | 1 to 10 µM | 1 to 10 µM | 50 to 100 µM | 50 to 100 µM | > 100 µM
CC(C)(C)c1ccc(C(=O)[Se]CC#N)cc1 [Compound 10, Se-(cyanomethyl) 4-tert-butylbenzoselenoate] | 1 to 10 µM | 1 to 10 µM | 10 to 50 µM | > 100 µM | > 100 µM
N#CC[Se]C(=O)Cc1ccccc1 [Compound 11, Se-(cyanomethyl) 2-phenylethaneselenoate] | < 1 µM | < 1 µM | 10 to 50 µM | 50 to 100 µM | > 100 µM
N#CC[Se]C(=O)c1ccc(Cl)cc1Cl [Compound 13, Se-(cyanomethyl) 2,4-dichlorobenzoselenoate] | 1 to 10 µM | 1 to 10 µM | 10 to 50 µM | 10 to 50 µM | > 100 µM
N#CCC[Se]C(=O)c1ccc(Cl)cc1Cl [Compound 14, Se-(cyanoethyl) 2,4-dichlorobenzoselenoate] | 1 to 10 µM | 1 to 10 µM | > 100 µM | 10 to 50 µM | 50 to 100 µM
N#CC[Se]C(=O)c1ccc(Cl)c(Cl)c1 [Compound 15, Se-(cyanomethyl) 3,4-dichlorobenzoselenoate] | 1 to 10 µM | 1 to 10 µM | 10 to 50 µM | > 100 µM | > 100 µM
CC(=O)Oc1ccccc1C(=O)[Se]CC#N [Compound 17, Se-(cyanomethyl) 2-acetoxybenzoselenoate] | 1 to 10 µM | < 1 µM | 10 to 50 µM | 10 to 50 µM | 10 to 50 µM
